Data reported in US20100029654A1, “CARDIOVASCULAR COMPOSITIONS AND USE OF THE SAME FOR THE TREATMENT OF ALZHEIMER'S DISEASE” (MOUNT SINAI SCHOOL OF MEDICINE, priority 2006, published 2010).
Where a name gives a salt, the structure may show the parent alone. Read-outs that look alike come from different tables or passages of the source.

Columns and labels:
Aβ1-42 = Aβ1-42 content in conditioned medium of primary cortico-hippocampal neuron cultures from Tg2576 mice (ELISA; primary and secondary dose-response screening); format: cell-based, mouse; details: for Ab1-42 (% of ctl) / activity at 100 µM: drug 100 μM; for activity at 100 µM: Mus musculus, Neuron, 24 h, read-out: Ab1-42 (% of ctl); for reducing Aβ1-42: <85% of ctl
Procedure: (§1) Potential Aβ-lowering activity was assessed for 150 commercially available cardiovascular drugs using primary cortico-hippocampal neuron cultures derived from embryonic Tg2576 (El 6). […] All cardiovascular reagents were obtained from MicroSource Discovery Systems Inc (Gaylordsville, Conn.). […] Individual cardiovascular agents were applied directly to the culture medium (final 1% DMSO in the culture media). In control studies, parallel Tg2576 primary neuron cultures were treated with vehicle (1% DMSO) alone. The influence of drug treatments in Aβ content in the conditioned medium in treated cultures was assessed by assessing steady state levels of Aβ1-40 and Aβ1-42 in the culture media 24 hours after treatment.
(§2) Embryonic brain tissue was mechanically triturated and centrifuged. Neurons were seeded onto poly-D-lysine-coated 96-well plates at 1.0×10^5 cells per well and cultured in the serum-free chemically-defined medium Neurobasal, supplemented with 2% B27, 0.5 mM L-glutamine and 1% penicillin-streptomycin (Gibco-BRL).
(§3) For primary screening, cultured neurons were treated with 100 μM of drug in duplicates for 16 hours; all drugs were obtained in stock from MicroSource Discovery Systems Inc (Gaylordsville, Conn.). Conditioned medium was collected for Aβ detection using commercially available ELISA kits (BioSource). […] Primary neurons prepared in 96-well plates were treated with 0.1 μM, 1 μM, 10 μM, 50 μM, and 100 μM of each drug in duplicate for ˜16 hours and conditioned medium was collected for Aβ detection.

Aβ1-40 = Aβ1-40 content in conditioned medium of primary cortico-hippocampal neuron cultures from Tg2576 mice (ELISA; primary and secondary dose-response screening); format: cell-based, mouse; details: for Ab1-40 (% of ctl) / activity at 100 µM: drug 100 μM; for activity at 100 µM: Mus musculus, Neuron, 24 h, read-out: Ab1-40 (% of ctl); for reduced Aβ1-40: <85% of ctl
Procedure: as §1, §2, §3

[1] = test system: primary cortico-hippocampal neuron cultures; test: lactate dehydrogenase (LDH) activity assay in parallel neuron cultures
Procedure: For in vitro treatments drugs available from “The Spectrum Collection” in stocks of 10 mM in DMSO were applied directly to cultures to the desired concentrations (final 1% DMSO); control primary neuron cultures from Tg2576 embryos were treated with vehicle resulting in a final 1% DMSO.
Cell viability was assessed using a commercial available LDH assay kit according to the manufacture's instruction (Promega).

[2] = test system: primary cortico-hippocampal neuron cultures; test: MTT in primary screening
[3] = Primary Screening, table sorted by Aβ1-40
[4] = primary screening, Tg2576 neuron cultures, table sorted by Aβ1-42
[5] = primary screening, table sorted by Aβ1-42

Compound	Ab1-42 (% of ctl) (Aβ1-42; [3])	Ab1-42 (% of ctl) (Aβ1-42; [4])	Ab1-40 (% of ctl) (Aβ1-40; [3])	Ab1-40 (% of ctl) (Aβ1-40; [4])	LDH (% of ctl) [1, 3]	LDH (% of ctl) [1, 5]	MTT (% of ctl) [2, 3]	MTT (% of ctl) [2, 5]	activity at 100 µM (Aβ1-42; [3]) [%]	activity at 100 µM (Aβ1-42; [4]) [%]	activity at 100 µM (Aβ1-40; [3]) [%]	activity at 100 µM (Aβ1-40; [4]) [%]	reducing Aβ1-42 (Aβ1-42; primary screening)	reduced Aβ1-40 (Aβ1-40; primary screening)	LDH at E-5M % of change ([1]; drug at E-5M) [%]
COc1ccc2c(c1OC)C(=O)O[C@H]2[C@@H]1c2cc3c(cc2CCN1C)OCO3 [1S,9R-Beta-HYDRASTINE]	123.6 % of ctl	123.6 % of ctl	114.5 % of ctl	114.5 % of ctl	114.2 % of ctl	114.2 % of ctl	101.1 % of ctl	101.1 % of ctl	–	–	–	–	–	–	–
CC(C)(C)NCC(O)COc1cccc2[nH]c(=O)[nH]c12 (stereo not drawn) [2-HYDROXY-4-(2-HYDROXY-3-T-BUTYLAMINOPROPOXY)-BENZIMIDAZOLE]	–	–	–	–	109.3 % of ctl	109.3 % of ctl	97.1 % of ctl	97.1 % of ctl	104	104	99.2	99.2	–	–	–
CCCC(=O)Nc1ccc(OCC(O)CNC(C)C)c(C(C)=O)c1 (stereo not drawn) [Acebutolol Hydrochloride]	–	–	–	–	107.6 % of ctl	107.6 % of ctl	99.4 % of ctl	99.4 % of ctl	165	165	134	134	–	–	–
CC(=O)Nc1nnc(S(N)(=O)=O)s1 [Acetazolamide]	–	–	–	–	173.5 % of ctl	173.5 % of ctl	78.0 % of ctl	78.0 % of ctl	118	118	115	115	–	–	–
COc1cc2nc(N(C)CCCNC(=O)C3CCCO3)nc(N)c2cc1OC (stereo not drawn) [Alfluzosin]	66.9 % of ctl	66.9 % of ctl	122.7 % of ctl	122.7 % of ctl	95.4 % of ctl	95.4 % of ctl	91.8 % of ctl	91.8 % of ctl	–	–	–	–	useful in reducing Aβ1-42	–	–
C=CCc1ccccc1OCC(O)CNC(C)C (stereo not drawn) [Alprenolol]	–	–	–	–	128.0 % of ctl	128.0 % of ctl	92.2 % of ctl	92.2 % of ctl	106	106	93.8	93.8	–	–	–
C=CCSCC1Nc2cc(Cl)c(S(N)(=O)=O)cc2S(=O)(=O)N1 (stereo not drawn) [Althiazide]	–	–	–	–	109.0 % of ctl	109.0 % of ctl	99.7 % of ctl	99.7 % of ctl	65.4	65.4	74.4	74.4	useful in reducing Aβ1-42	reduced Aβ1-40	–
CCCCc1oc2ccccc2c1C(=O)c1cc(I)c(OCCN(CC)CC)c(I)c1 [Amiodarone Hydrochloride]	–	–	–	–	–	–	–	–	23.2	23.2	14.9	14.9	useful in reducing Aβ1-42	reduced Aβ1-40	1.9
CCOC(=O)C1=C(COCCN)NC(C)=C(C(=O)OC)C1c1ccccc1Cl (stereo not drawn) [Amlodipine Besylate]	–	–	–	–	1188.9 % of ctl	1188.9 % of ctl	13.3 % of ctl	13.3 % of ctl	10.2	10.2	4.9	4.9	useful in reducing Aβ1-42	reduced Aβ1-40	–
COc1ccc(C2C(=O)c3ccccc3C2=O)cc1 [Anisindione]	–	–	–	–	148.9 % of ctl	148.9 % of ctl	110.7 % of ctl	110.7 % of ctl	103	103	90.1	90.1	–	–	–
CC(C)NCC(O)COc1ccc(CC(N)=O)cc1 (stereo not drawn) [Atenolol]	–	–	–	–	136.8 % of ctl	136.8 % of ctl	97.3 % of ctl	97.3 % of ctl	94.5	94.5	90.4	90.4	–	–	–
CC(C)c1c(C(=O)Nc2ccccc2)c(-c2ccccc2)c(-c2ccc(F)cc2)n1CC[C@@H](O)C[C@@H](O)CC(=O)[O-].CC(C)c1c(C(=O)Nc2ccccc2)c(-c2ccccc2)c(-c2ccc(F)cc2)n1CC[C@@H](O)C[C@@H](O)CC(=O)[O-].[Ca+2] [Atorvastatin Calcium]	76.9 % of ctl	76.9 % of ctl	66.0 % of ctl	66.0 % of ctl	99.4 % of ctl	99.4 % of ctl	98.4 % of ctl	98.4 % of ctl	–	–	–	–	useful in reducing Aβ1-42	reduced Aβ1-40	–
CC(C)(Oc1ccc(CCNC(=O)c2ccc(Cl)cc2)cc1)C(=O)O [BENZAFIBRATE]	99.5 % of ctl	99.5 % of ctl	107.2 % of ctl	107.2 % of ctl	–	–	–	–	–	–	–	–	–	–	–
CCOC(=O)[C@H](CCc1ccccc1)N[C@H]1CCc2ccccc2N(CC(=O)O)C1=O [Benazepril Hydrochloride]	–	–	–	–	103.5 % of ctl	103.5 % of ctl	99.5 % of ctl	99.5 % of ctl	115	115	116	116	–	–	–
CC[C@@H](C)C(=O)O[C@H]1[C@H](O)[C@H]2[C@@H](CN3C[C@@H](C)CC[C@H]3[C@@]2(C)O)[C@@H]2C[C@]34O[C@]5(O)[C@@H](OC(=O)[C@@](C)(O)CC)CC[C@@]3(C)[C@@H]5[C@@H](OC(C)=O)[C@@H](OC(C)=O)[C@H]4[C@@]21O [Protoveratrine A]	104.6 % of ctl	104.6 % of ctl	91.7 % of ctl	91.7 % of ctl	–	–	–	–	–	–	–	–	–	–	–
CC(C)(C)NCC(O)c1ccccc1Cl (stereo not drawn) [Tulobuterol]	–	–	–	–	–	–	–	–	–	–	95.5	95.5	–	–	–
NC(N)=O [Urea]	104.9 % of ctl	104.9 % of ctl	–	–	130.8 % of ctl	130.8 % of ctl	96.7 % of ctl	96.7 % of ctl	–	–	–	–	–	–	–
